# Laboratory results as given in publication PMC2014795 (PLoS Pathogens, 2007).
# Where no end group is shown, it is not given here.
# Molecular target: T1, HLA-DR1 (DRB1*0101) (Homo sapiens, UniProt P01903+P01911, A100R/D57E/F55L/F60I/F76Y/I96L/L162R/M171V/P40L/Q125E/R42F/V115G/Y59C)
# T1 construct: the extracellular portion of HLA-DR1 was produced by expression of isolated subunits in Escherichia coli inclusion bodies; made in house
# Assay: biochemical
# Assay type: binding
row,Compound,IC50
1,CC[C@H](C)[C@H](NC(=O)[C@@H](NC(=O)[C@H](CC(N)=O)NC(=O)[C@H](CCCNC(=N)N)NC(=O)[C@H](Cc1c[nH]cn1)NC(=O)[C@H](CCCNC(=N)N)NC(=O)[C@@H](NC(=O)[C@H](Cc1ccc(O)cc1)NC(=O)[C@H](CCC(=O)O)NC(=O)[C@H](C)NC(=O)[C@H](CC(C)C)NC(=O)[C@@H](NC(=O)[C@H](CC(C)C)NC(=O)[C@H](CCCCN)NC(=O)[C@H](Cc1ccccc1)NC(=O)[C@H](CO)NC(=O)[C@H](Cc1ccc(O)cc1)NC(=O)[C@H](CCCCN)NC(=O)[C@H](CC(N)=O)NC(=O)[C@H](Cc1ccc(O)cc1)NC(=O)[C@@H](N)CC(C)C)[C@@H](C)CC)[C@@H](C)CC)[C@@H](C)O)C(=O)O [Peptide 321],185 ± 50 nM
2,CC[C@H](C)[C@H](NC(=O)[C@@H](NC(=O)[C@@H]1CCCN1C(=O)[C@H](CCC(=O)O)NC(=O)[C@H](CO)NC(=O)[C@H](CO)NC(=O)[C@H](CCSC)NC(=O)[C@H](Cc1ccc(O)cc1)NC(=O)[C@H](CCCNC(=N)N)NC(=O)[C@H](Cc1ccccc1)NC(=O)[C@@H](NC(=O)[C@@H](NC(=O)[C@H](CC(N)=O)NC(=O)[C@H](C)NC(=O)[C@@H](NC(=O)[C@@H](N)CCC(N)=O)[C@@H](C)O)C(C)C)C(C)C)[C@@H](C)CC)C(=O)N[C@@H](Cc1ccccc1)C(=O)NCC(=O)N[C@@H](CCC(=O)O)C(=O)N[C@@H](CO)C(=O)N[C@@H](CO)C(=O)O [Peptide 302],37 ± 10 nM
3,CC[C@H](C)[C@H](NC(=O)[C@H](CC(N)=O)NC(=O)[C@H](Cc1ccccc1)NC(=O)[C@H](CC(C)C)NC(=O)[C@H](CCCCN)NC(=O)[C@H](CC(N)=O)NC(=O)CNC(=O)[C@H](CC(=O)O)NC(=O)[C@H](CC(C)C)NC(=O)[C@@H]1CCCN1C(=O)[C@@H](NC(=O)[C@@H](NC(=O)[C@H](CCCCN)NC(=O)[C@@H](NC(=O)[C@H](CCCCN)NC(=O)[C@H](CS)NC(=O)[C@H](CO)NC(=O)[C@@H](N)Cc1c[nH]cn1)C(C)C)[C@@H](C)CC)C(C)C)C(=O)N[C@@H](C)C(=O)N[C@@H](CCC(N)=O)C(=O)N[C@@H](CCCNC(=N)N)C(=O)O [Peptide 329],5 ± 1 nM
4,CC[C@H](C)[C@H](NC(=O)[C@H](CO)NC(=O)[C@H](CCSC)NC(=O)[C@H](CO)NC(=O)[C@H](Cc1ccc(O)cc1)NC(=O)[C@@H](NC(=O)[C@@H](NC(=O)[C@H](CO)NC(=O)[C@@H]1CCCN1C(=O)[C@H](Cc1ccccc1)NC(=O)[C@H](CC(C)C)NC(=O)[C@H](CC(C)C)NC(=O)[C@@H](NC(=O)[C@@H](NC(=O)[C@@H](NC(=O)[C@H](CC(C)C)NC(=O)[C@H](CO)NC(=O)[C@H](CCCNC(=N)N)NC(=O)[C@@H](N)CCSC)[C@@H](C)CC)[C@@H](C)CC)C(C)C)[C@@H](C)CC)[C@@H](C)CC)C(=O)N[C@@H](CCCNC(=N)N)C(=O)N[C@@H](CCCNC(=N)N)C(=O)O [Peptide 319],1890 nM
5,CC[C@H](C)[C@H](N)C(=O)N[C@@H](CCCCN)C(=O)N[C@@H](CCCNC(=N)N)C(=O)NCC(=O)N[C@@H](CC(C)C)C(=O)N[C@@H](Cc1ccccc1)C(=O)N[C@@H](Cc1ccccc1)C(=O)N[C@@H](CC(C)C)C(=O)N[C@@H](CCCNC(=N)N)C(=O)N[C@@H](CC(C)C)C(=O)N[C@@H](CO)C(=O)N[C@@H](C)C(=O)N[C@@H](CC(N)=O)C(=O)N[C@@H](CC(C)C)C(=O)N[C@@H](Cc1ccccc1)C(=O)N[C@@H](CCC(=O)O)C(=O)N[C@@H](CO)C(=O)N[C@@H](CCC(N)=O)C(=O)N[C@H](C(=O)N[C@@H](CO)C(=O)N[C@@H](CO)C(=O)O)C(C)C [Peptide 333],68 ± 14 nM
6,CC[C@H](C)[C@H](NC(=O)[C@H](CCCNC(=N)N)NC(=O)[C@H](CO)NC(=O)CNC(=O)[C@H](CCC(N)=O)NC(=O)[C@H](CCC(=O)O)NC(=O)[C@@H](NC(=O)CNC(=O)[C@H](CC(C)C)NC(=O)[C@@H]1CCCN1C(=O)[C@H](CCCCN)NC(=O)[C@H](CCSC)NC(=O)[C@H](CC(C)C)NC(=O)[C@H](CC(C)C)NC(=O)[C@H](CC(C)C)NC(=O)[C@H](CC(N)=O)NC(=O)[C@H](Cc1ccccc1)NC(=O)[C@H](CCSC)NC(=O)[C@H](CC(=O)O)NC(=O)[C@H](Cc1ccc(O)cc1)NC(=O)[C@@H](N)CO)[C@@H](C)CC)C(=O)O [Peptide 337],28 ± 6 nM
7,TTKHPDYAILAARIAVSNLHK [Peptide 307],28 ± 4 nM
8,CC[C@H](C)[C@H](NC(=O)[C@H](Cc1ccc(O)cc1)NC(=O)CNC(=O)[C@H](C)NC(=O)[C@H](CC(C)C)NC(=O)[C@H](CCC(N)=O)NC(=O)[C@H](Cc1ccc(O)cc1)NC(=O)[C@H](Cc1ccc(O)cc1)NC(=O)[C@@H](NC(=O)[C@@H](NC(=O)[C@H](CC(C)C)NC(=O)[C@H](Cc1c[nH]cn1)NC(=O)[C@@H](NC(=O)[C@H](C)N)C(C)C)[C@@H](C)CC)[C@@H](C)CC)C(=O)N[C@@H](CC(C)C)C(=O)N[C@H](C(=O)N[C@H](C(=O)N[C@@H](CC(C)C)C(=O)NCC(=O)N[C@@H](CC(C)C)C(=O)NCC(=O)O)C(C)C)[C@@H](C)O [Peptide 323],2170 nM
